Type in all cases: functional
Common to all, as to details: time 48-72 hrs

Assay [1] can be described thus: Antiproliferative activity against human HCC cells assessed as inhibition of cell growth at 10 uM measured after 48 to 72 hrs by MTT assay relative to control. In general terms: Tetrazolium assays rely on reduction of a dye to a coloured formazan, in cell work by metabolically active cells.
Assay [2] has as its system T47D. The experiment in a line: Antiproliferative activity against human T47D cells assessed as inhibition of cell growth at 10 uM measured after 48 to 72 hrs by MTT assay relative to control.
For assay [3], the system named is A549. Briefly: Antiproliferative activity against human A549 cells assessed as inhibition of cell growth at 10 uM measured after 48 to 72 hrs by MTT assay relative to control.
Assay [4] concerns FaDu. The experiment in a line: Antiproliferative activity against human FaDu cells assessed as inhibition of cell growth at 10 uM measured after 48 to 72 hrs by MTT assay relative to control.
The test system of assay [5] is MDA-MB-231. Briefly: Antiproliferative activity against human MDA-MB-231 cells assessed as inhibition of cell growth at 10 uM measured after 48 to 72 hrs by MTT assay relative to control.
Assay [6] has as its system MCF7. Briefly: Antiproliferative activity against human MCF7 cells assessed as inhibition of cell growth at 10 uM measured after 48 to 72 hrs by MTT assay relative to control.

`CCN(CC)c1nc(Cc2ccc(Br)cc2)nc2sc3c(c12)CCCC3`: the inhibition – broadly, the share of the control response that was lost under treatment – at 10 µM in assay [1] turned out to be 1.47%; in assay [2], 2.88%; in assay [3], 2.22%; in assay [4], 34.2%; in assay [5] it was 1.91%; in assay [6], 15.7%.

`Brc1ccc(Cc2nc(-n3ccnc3)c3c4c(sc3n2)CCCC4)cc1`: the inhibition at 10 µM came out at 2.03% in assay [1]; 1.99% in assay [2]; 2.45% in assay [3]; 46.9% in assay [4]; 12.8% in assay [5]; 3.19% in assay [6].

For the molecule `CCCNc1nc(Cc2ccc(Br)cc2)nc2sc3c(c12)CCCC3`, the inhibition at 10 µM in assay [1] was determined as 1.37%; in assay [2], 17.3%; in assay [3], 3.63%; in assay [4] it was 56.2%; in assay [5] it was 3.11%; in assay [6], 3.16%.

Regarding `Brc1ccc(Cc2nc(NCc3ccccn3)c3c4c(sc3n2)CCCC4)cc1`, the inhibition at 10 µM in assay [1] turned out to be 2.05%; in assay [2] it was 17.9%; in assay [3], 3.32%; in assay [4], 29.1%; in assay [5], 1.25%; in assay [6], 4.03%.

As to `C=CCNc1nc(Cc2ccc(Br)cc2)nc2sc3c(c12)CCCC3`, the inhibition at 10 µM in assay [1] amounted to 1.55%; in assay [2], 2.35%; in assay [3], 2.89%; in assay [4], 45.2%; in assay [5], 1.17%; in assay [6] it was 20.5%.

As for `Brc1ccc(Cc2nc(NC3CCCCC3)c3c4c(sc3n2)CCCC4)cc1`, the inhibition at 10 µM in assay [1] was determined as 12.8%; in assay [2] it was 1.35%; in assay [3], 1.56%; in assay [4], 27.4%; in assay [5] it was 1.22%; in assay [6], 19%.

In the case of `OCCNc1nc(Cc2ccc(Br)cc2)nc2sc3c(c12)CCCC3`, the inhibition at 10 µM in assay [1] amounted to 2%; in assay [2], 5.73%; in assay [3], 1.21%; in assay [4], 50.2%; in assay [5], 2.1%; in assay [6], 2.71%.

For `Nc1ccccc1CNc1nc(Cc2ccc(Br)cc2)nc2sc3c(c12)CCCC3`, the inhibition at 10 µM in assay [1] was 1.89%; in assay [2], 1.79%; in assay [3] it was 1.33%; in assay [4] it was 25.9%; in assay [5], 5.74%; in assay [6], 2.66%.

For the molecule `Fc1ccc(CNc2nc(Cc3ccc(Br)cc3)nc3sc4c(c23)CCCC4)cc1`, the inhibition at 10 µM in assay [1] came out at 1.36%; in assay [2], 2.58%; in assay [3], 1.55%; in assay [4], 21.4%; in assay [5], 10.8%; in assay [6] it was 0.55%.

As to `Brc1ccc(Cc2nc(NC3CC3)c3c4c(sc3n2)CCCC4)cc1`, the inhibition at 10 µM was found to be 2.11% in assay [1]; 1.31% in assay [2]; 1.11% in assay [3]; 28.9% in assay [4]; 2.23% in assay [5]; 38.5% in assay [6].

`Fc1cc(CNc2nc(Cc3ccc(Br)cc3)nc3sc4c(c23)CCCC4)cc(F)c1F`: the inhibition at 10 µM in assay [1] was found to be 1.57%; in assay [2], 3.01%; in assay [3], 6.63%; in assay [4], 25.8%; in assay [5], 2.39%; in assay [6], 8.28%.

Regarding `Brc1ccc(Cc2nc(NCc3ccccc3)c3c4c(sc3n2)CCCC4)cc1`, the inhibition at 10 µM in assay [1] stood at 1.79%; in assay [2] it was 11.2%; in assay [3], 3.12%; in assay [4] it was 24.3%; in assay [5], 4.99%; in assay [6], 0.55%.

With `COc1ccc(CNc2nc(Cc3ccc(Br)cc3)nc3sc4c(c23)CCCC4)cc1`, the inhibition at 10 µM is 1.01% in assay [1]; 1.05% in assay [2]; 1.69% in assay [3]; 26.8% in assay [4]; 13.7% in assay [5]; 29.6% in assay [6].

Regarding `Clc1ccccc1CNc1nc(Cc2ccc(Br)cc2)nc2sc3c(c12)CCCC3`, the inhibition at 10 µM in assay [1] turned out to be 1.55%; in assay [2], 3.69%; in assay [3], 2.67%; in assay [4], 18.1%; in assay [5], 0.1%; in assay [6], 9.51%.

On to `CNc1nc(Cc2ccc(Br)cc2)nc2sc3c(c12)CCCC3`, for which the inhibition at 10 µM came out at 1.28% in assay [1]; 1.69% in assay [2]; 2.65% in assay [3]; 23.4% in assay [4]; 1.09% in assay [5]; 18.7% in assay [6].

Consider `NCCCNc1nc(Cc2ccc(Br)cc2)nc2sc3c(c12)CCCC3`, for which the inhibition at 10 µM in assay [1] was 8.12%; in assay [2], 8.24%; in assay [3] it was 8.86%; in assay [4] it was 54.1%; in assay [5] it was 1.12%; in assay [6] it was 8.28%.

As for `CC(C)(C)OC(=O)N1CCN(c2nc(Cc3ccc(Br)cc3)nc3sc4c(c23)CCCC4)CC1`, the inhibition at 10 µM in assay [1] turned out to be 2.01%; in assay [2], 3.33%; in assay [3], 0.29%; in assay [4], 16.6%; in assay [5], 38.9%; in assay [6], 15.1%.

For the molecule `Brc1ccc(Cc2nc(N3CCCC3)c3c4c(sc3n2)CCCC4)cc1`, the inhibition at 10 µM in assay [1] was found to be 1.36%; in assay [2], 3.74%; in assay [3], 10.3%; in assay [4], 49.2%; in assay [5], 8.72%; in assay [6], 19.4%.

As for `C#Cc1cccc(Nc2ncnc3cc(OCCOC)c(OCCOC)cc23)c1` [ERLOTINIB], the inhibition at 10 µM is 4.19% in assay [1]; 1.27% in assay [2]; 19.7% in assay [4]; 19.6% in assay [5]; 6.71% in assay [6].

Turning to `Fc1ccccc1CNc1nc(Cc2ccc(Br)cc2)nc2sc3c(c12)CCCC3`, the inhibition at 10 µM in assay [1] worked out at 2.55%; in assay [2], 2.14%; in assay [3], 3.45%; in assay [4], 26.2%; in assay [5], 6.27%; in assay [6], 19.4%.

The record behind these values is ChEMBL document CHEMBL6177930, “2-(4-Bromobenzyl) tethered 4-amino aryl/alkyl-5,6,7,8-tetrahydrobenzo[4,5]thieno[2,3-d]pyrimidines: design, synthesis, anticancer assessment via dual topoisomerase-I/II inhibition, and in silico studies” (RSC Med Chem, 2025).
